Some results are limits rather than exact numbers.

The target of one assay is T1, PERK (Homo sapiens, UniProt Q9NZJ5).
T1 sequence (Q9NZJ5 30-1116): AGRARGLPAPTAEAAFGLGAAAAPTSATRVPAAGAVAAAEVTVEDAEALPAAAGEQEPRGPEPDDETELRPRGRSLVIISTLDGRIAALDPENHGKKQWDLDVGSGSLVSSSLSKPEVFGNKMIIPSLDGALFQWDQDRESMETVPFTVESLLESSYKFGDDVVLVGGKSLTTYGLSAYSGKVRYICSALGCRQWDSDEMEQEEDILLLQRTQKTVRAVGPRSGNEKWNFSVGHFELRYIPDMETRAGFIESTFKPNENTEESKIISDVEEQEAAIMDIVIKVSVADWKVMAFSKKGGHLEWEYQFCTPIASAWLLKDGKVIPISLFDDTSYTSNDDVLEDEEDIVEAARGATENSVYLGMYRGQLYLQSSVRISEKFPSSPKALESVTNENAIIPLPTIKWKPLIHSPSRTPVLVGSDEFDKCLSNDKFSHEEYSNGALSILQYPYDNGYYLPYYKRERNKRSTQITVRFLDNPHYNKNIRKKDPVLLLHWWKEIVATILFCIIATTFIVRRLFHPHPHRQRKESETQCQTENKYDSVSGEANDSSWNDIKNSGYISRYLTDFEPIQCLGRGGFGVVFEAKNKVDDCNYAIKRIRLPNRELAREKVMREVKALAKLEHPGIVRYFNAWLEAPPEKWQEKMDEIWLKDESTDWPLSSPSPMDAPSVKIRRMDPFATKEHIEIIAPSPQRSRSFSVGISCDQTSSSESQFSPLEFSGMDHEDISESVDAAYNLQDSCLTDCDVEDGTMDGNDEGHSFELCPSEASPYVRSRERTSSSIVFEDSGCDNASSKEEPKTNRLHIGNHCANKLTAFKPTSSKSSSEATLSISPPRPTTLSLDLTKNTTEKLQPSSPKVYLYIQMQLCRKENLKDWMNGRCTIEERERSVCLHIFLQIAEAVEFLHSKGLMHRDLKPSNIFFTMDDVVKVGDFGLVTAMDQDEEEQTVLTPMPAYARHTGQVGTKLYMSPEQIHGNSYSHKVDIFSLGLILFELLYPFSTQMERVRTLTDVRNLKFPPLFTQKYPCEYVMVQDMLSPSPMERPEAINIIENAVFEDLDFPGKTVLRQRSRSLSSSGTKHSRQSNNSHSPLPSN
Description: PERK enzyme assay (HTRF). Format: biochemical. The conditions noted are these: 500 μM ATP; at least one experimental run; read-out: PERK Enzyme (500 μM ATP) IC50. The protocol: Compounds of the invention were assayed for PERK enzyme inhibitory activity with modifications to previously reported conditions (Axten et al. J. Med. Chem., 2012, 55, 7193-7207). Briefly, various concentrations of compounds (maximum 1% DMSO) were dispensed into 384-well plates containing GST-PERK enzyme. After 30-60 minutes of compound pre-incubation, ATP and biotin-eIF2α were added and after 60 minutes the reaction was quenched. After 2 hrs, a fluorescence plate reader was used to measure inhibition and IC50s were calculated.
Enzyme Assay Protocol for PKR-Like Endoplasmic Reticulum Kinase (PERK)—HTRF —% Inhibition
Assay Buffer contains HEPES (pH7.5) 10 mM, CHAPS 2 mM, MgCl2 5 mM and DTT 1 mM in water
Detection Buffer contains HEPES (pH7.5) 10 mM and CHAPS 2 mM in water Assay Plate Preparation:
1. Enzyme Preparation: • 4× Enzyme solution was prepared immediately prior to adding to compound plates. • 3 nM of GST-PERK in Assay buffer. Final [PERK] in 10 μl assay volume=0.75 nM
2. Substrate Preparation: • 4× Substrate solution was prepared immediately prior to adding to compound plates. • 4× Substrate solution in assay buffer 2000 μM ATP and 160 nM Biotin-eIF2α • Final [ATP] in 10 μl assay volume=500 μM • Final [biotin-eIF2a] in 10 μl assay volume=40 nM.
3. Quench/Detection Solution: • 16 nM eIF2 Phospho-Antibody • 16 nM Eu anti-Rabbit IgG • 160 nM Streptavidin-APC • 60 mM EDTA • Final concentration in 10 μL assay volume: 4 nM eIF2 Phospho-Antibody, 4 nM Eu anti-Rabbit IgG 40 nM Streptavidin-APC
The activity of compounds in the PERK enzyme assay was determined at PERK Enzyme (500 μM ATP) IC50 (nM).
Regarding `CCN1C(=O)N(c2ccc(-c3cn(C)c4ncnc(N)c34)c(F)c2)CC1c1cc(F)cc(F)c1` (single isomer, unassigned) [Example 172, 1-(4-(4-amino-7-methyl-7H-pyrrolo[2,3-d]pyrimidin-5-yl)-3-fluorophenyl)-4-(3,5-difluorophenyl)-3-ethylimidazolidin-2-one], the IC50 worked out at 30.1 nM.

On to `CCN1C(=O)N(c2ccc(-c3cn(C)c4ncnc(N)c34)c(F)c2)CC1c1cc(F)cc(C(F)(F)F)c1` (single isomer, unassigned) [Example 88, 1-(4-(4-amino-7-methyl-7H-pyrrolo[2,3-d]pyrimidin-5-yl)-3-fluorophenyl)-3-ethyl-4-(3-fluoro-5-(trifluoromethyl)phenyl)imidazolidin-2-one], for which the IC50 was 192 nM.

Turning to `CCN1C(=O)N(c2ccc(-c3cn(C)c4ncnc(N)c34)c(F)c2)CC1c1cc(F)ccc1F` (single isomer, unassigned) [Example 2, 1-(4-(4-amino-7-methyl-7H-pyrrolo[2,3-d]pyrimidin-5-yl)-3-fluorophenyl)-4-(2,5-difluorophenyl)-3-ethylimidazolidin-2-one], the IC50 amounted to 77.4 nM.

Still in this assay, the particulars now being: PERK Enzyme (500 μM ATP) IC50; at least one experimental run; read-out: PERK Activity.
On to `Cn1cc(-c2ccc(N3CC(c4ccc(F)cc4F)N(CC(F)(F)F)C3=O)cc2F)c2c(N)ncnc21` (stereo not shown) [Example 79, 1-(4-(4-amino-7-methyl-7H-pyrrolo[2,3-d]pyrimidin-5-yl)-3-fluorophenyl)-4-(2,4-difluorophenyl)-3-(2,2,2-trifluoroethyl)imidazolidin-2-one], for which the IC50 was less than 100 nM.

In the case of `CCN1C(=O)N(c2ccc(-c3cn(C)c4ncnc(N)c34)c(F)c2)CC1c1cc(F)cc(F)c1` (single isomer, unassigned) [Example 171, 1-(4-(4-amino-7-methyl-7H-pyrrolo[2,3-d]pyrimidin-5-yl)-3-fluorophenyl)-4-(3,5-difluorophenyl)-3-ethylimidazolidin-2-one], the IC50 was less than 100 nM.

As for `Cc1nc(N)c2c(-c3ccc(N4CC(c5ccc(F)cc5F)N(C)C4=O)cc3F)cn(C(C)C)c2n1` (single isomer, unassigned) [Example 95, 1-(4-(4-amino-7-isopropyl-2-methyl-7H-pyrrolo[2,3-d]pyrimidin-5-yl)-3-fluorophenyl)-4-(2,4-difluorophenyl)-3-methylimidazolidin-2-one], the IC50 lay in the range of 100 to 1000 nM.

Regarding `CN1C(=O)N(c2ccc(-c3cn(C)c4ncnc(N)c34)c(F)c2)CC1c1cc(F)cc(Cl)c1` (single isomer, unassigned) [Example 51, 1-(4-(4-amino-7-methyl-7H-pyrrolo[2,3-d]pyrimidin-5-yl)-3-fluorophenyl)-4-(3-chloro-5-fluorophenyl)-3-methylimidazolidin-2-one], the IC50 was less than 100 nM.

Turning to `Cc1nc(N)c2c(-c3ccc(N4CC(c5ccc(F)cc5)N(C)C4=O)cc3F)cn(C)c2n1` (stereo not shown) [Example 69, 1-(4-(4-amino-2,7-dimethyl-7H-pyrrolo[2,3-d]pynmidin-5-yl)-3-fluorophenyl)-4-(4-fluorophenyl)-3-methylimidazolidin-2-one], the IC50 is less than 100 nM.

Take `CN1C(=O)N(c2ccc(-c3cn(C)c4ncnc(N)c34)c(F)c2)CC1c1ccc2c(c1)CCO2` (stereo not shown) [Example 147, 1-(4-(4-amino-7-methyl-7H-pyrrolo[2,3-d]pyrimidin-5-yl)-3-fluorophenyl)-4-(2,3-dihydrobenzofuran-5-yl)-3-methylimidazolidin-2-one]: the IC50 was less than 100 nM.

As to `Cc1nc(N)c2c(-c3ccc(N4CC(C5CCCCC5)N(C)C4=O)cc3F)cn(C)c2n1` (single isomer, unassigned) [Example 61, 1-(4-(4-amino-2,7-dimethyl-7H-pyrrolo[2,3-d]pyrimidin-5-yl)-3-fluorophenyl)-4-cyclohexyl-3-methylimidazolidin-2-one], the IC50 fell in the range of 100 to 1000 nM.

For `CCN1C(=O)N(c2ccc(-c3cn(C)c4ncnc(N)c34)c(F)c2)CC1c1cccc(F)c1F` (stereo not shown) [Example 75, 1-(4-(4-amino-7-methyl-7H-pyrrolo[2,3-d]pyrimidin-5-yl)-3-fluorophenyl)-4-(2,3-difluorophenyl)-3-ethylimidazolidin-2-one], the IC50 fell in the range of 100 to 1000 nM.

As to `Cc1nc(N)c2c(-c3ccc(N4CC(c5ccc(F)cc5)N(C)C4=O)cc3F)cn(C3CC3)c2n1` (single isomer, unassigned) [Example 90, 1-(4-(4-amino-7-cyclopropyl-2-methyl-7H-pyrrolo[2,3-d]pyrimidin-5-yl)-3-fluorophenyl)-4-(4-fluorophenyl)-3-methylimidazolidin-2-one], the IC50 is less than 100 nM.

Take `Cn1cc(-c2ccc(N3CC(c4cccc(Cl)c4F)CC3=O)cc2F)c2c(N)ncnc21` (stereo not shown) [Example 35, 1-(4-(4-amino-7-methyl-7H-pyrrolo[2,3-d]pyrimidin-5-yl)-3-fluorophenyl)-4-(3-chloro-2-fluorophenyl)pyrrolidin-2-one]: the IC50 lay within 100 to 1000 nM.

Take `CCN1C(=O)N(c2ccc(-c3cn(C)c4ncnc(N)c34)c(F)c2)CC1c1cc(F)cc(F)c1` (single isomer, unassigned) [Example 172, 1-(4-(4-amino-7-methyl-7H-pyrrolo[2,3-d]pyrimidin-5-yl)-3-fluorophenyl)-4-(3,5-difluorophenyl)-3-ethylimidazolidin-2-one]: the IC50 is less than 100 nM.

On to `CCN1C(=O)N(c2ccc(-c3cn(C)c4ncnc(N)c34)c(F)c2)CC1c1cc(F)cc(C(F)(F)F)c1` (single isomer, unassigned) [Example 88, 1-(4-(4-amino-7-methyl-7H-pyrrolo[2,3-d]pyrimidin-5-yl)-3-fluorophenyl)-3-ethyl-4-(3-fluoro-5-(trifluoromethyl)phenyl)imidazolidin-2-one], for which the IC50 lay in the range of 100 to 1000 nM.

`CN1C(=O)N(c2ccc(-c3cn(C4CC4)c4ncnc(N)c34)c(F)c2)CC1c1ccc(F)c(Cl)c1` (stereo not shown) [Example 132, 1-(4-(4-amino-7-cyclopropyl-7H-pyrrolo[2,3-d]pyrimidin-5-yl)-3-fluorophenyl)-4-(3-chloro-4-fluorophenyl)-3-methylimidazolidin-2-one]: the IC50 was less than 100 nM.

In the case of `Cn1cc(-c2ccc(N3CC(c4cc(F)cc(F)c4)CC3=O)nc2)c2c(N)ncnc21` (stereo not shown) [Example 32, 1-(5-(4-amino-7-methyl-7H-pyrrolo[2,3-d]pyrimidin-5-yl)pyridin-2-yl)-4-(3,5-difluorophenyl)pyrrolidin-2-one], the IC50 is 100 to 1000 nM.

In the case of `CCN1C(=O)N(c2ccc(-c3cn(CC(F)F)c4ncnc(N)c34)c(F)c2)CC1c1cc(F)ccc1F` (stereo not shown) [Example 17, 1-(4-(4-amino-7-(2,2-difluoroethyl)-7H-pyrrolo[2,3-d]pyrimidin-5-yl)-3-fluorophenyl)-4-(2,5-difluorophenyl)-3-ethylimidazolidin-2-one], the IC50 fell in the range of 100 to 1000 nM.

With `Cc1cccc(C2CC(=O)N(c3ccc(-c4cn(C)c5ncnc(N)c45)c(F)c3)C2)n1` (stereo not shown) [Example 33, 1-(4-(4-amino-7-methyl-7H-pyrrolo[2,3-d]pyrimidin-5-yl)-3-fluorophenyl)-4-(6-methylpyridin-2-yl)pyrrolidin-2-one], the IC50 is 100 to 1000 nM.

In the case of `CN1C(=O)N(c2ccc(-c3cn(C)c4ncnc(N)c34)c(F)c2)CC1c1cc(F)cc(F)c1F` (stereo not shown) [Example 56, 1-(4-(4-amino-7-methyl-7H-pyrrolo[2,3-d]pyrimidin-5-yl)-3-fluorophenyl)-3-methyl-4-(2,3,5-trifluorophenyl)imidazolidin-2-one], the IC50 lay in the range of 100 to 1000 nM.

As to `Cc1nc(N)c2c(-c3ccc(N4CC(c5cc(F)ccc5F)N(C)C4=O)cc3F)cn(C)c2n1` (stereo not shown) [Example 15, 1-(4-(4-amino-2,7-dimethyl-7H-pyrrolo[2,3-d]pyrimidin-5-yl)-3-fluorophenyl)-4-(2,5-difluorophenyl)-3-methylimidazolidin-2-one], the IC50 is less than 100 nM.

Consider `CCN1C(=O)N(c2ccc(-c3cn(C)c4ncnc(N)c34)c(F)c2)CC1c1cc(F)ccc1F` (single isomer, unassigned) [Example 2, 1-(4-(4-amino-7-methyl-7H-pyrrolo[2,3-d]pyrimidin-5-yl)-3-fluorophenyl)-4-(2,5-difluorophenyl)-3-ethylimidazolidin-2-one], for which the IC50 is less than 100 nM.

For the origin of these results see US20180237441A1, “Chemical Compounds” (GlaxoSmithKline Intellectual Property (No.2) Limited, priority 2015, published 2018).
